# Measurements published in the supplement of paper PMC10307832.
# Tests used:
# Assay in all cases: relative viability (nuclei count vs DMSO), 5 days (fraction); higher = more cells survive
# [1] = compound: CC1=CC(=CC=C1)NC2=NC(=CS2)C3=CC=NC=C3 + O=C(c1cc(Cc2n[nH]c(=O)c3ccccc23)ccc1F)N1CCN(C(=O)C2CC2)CC1 [Olaparib] (partner 8 µM)
# Procedure, shortened: (§1)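 The day after seeding in 1536-well plates, lung cancer cell lines were treated by pin tool with a single drug, or with a fixed anchor-drug dose together with five library-drug doses (not always all listed) in √10 steps. After 5 days, a combined fix-and-stain solution (final 0.05% Triton X-100, 1% formaldehyde, 1 ug/ml Hoechst) was added. Nuclei counted on 4× images gave relative viability as treated counts over vehicle counts, reported as the median of duplicate plates.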
# Masitinib + Pictilisib = compound: Cc1ccc(NC(=O)c2ccc(CN3CCN(C)CC3)cc2)cc1Nc1nc(-c2cccnc2)cs1 [Masitinib] + CS(=O)(=O)N1CCN(Cc2cc3nc(-c4cccc5[nH]ncc45)nc(N4CCOCC4)c3s2)CC1 [Pictilisib] (partner 1 µM)
# Procedure, shortened: as §1
# Masitinib + Vorinostat = compound: Cc1ccc(NC(=O)c2ccc(CN3CCN(C)CC3)cc2)cc1Nc1nc(-c2cccnc2)cs1 [Masitinib] + O=C(CCCCCCC(=O)Nc1ccccc1)NO [Vorinostat] (partner 1 µM)
# Procedure, shortened: as §1
# [2] = compound: CC1=CC(=CC=C1)NC2=NC(=CS2)C3=CC=NC=C3 + Nc1nc2[nH]cc(CCc3ccc(C(=O)N[C@@H](CCC(=O)O)C(=O)O)cc3)c2c(=O)[nH]1 [Pemetrexed] (partner 0.2 µM)
# Procedure, shortened: as §1
Cell Line,relative viability ([1]; first compound 0.08 µM),relative viability ([1]; first compound 0.253 µM),relative viability ([1]; first compound 0.8 µM),relative viability ([1]; first compound 2.53 µM),relative viability ([1]; first compound 8 µM),relative viability (Masitinib + Pictilisib; first compound 0.01 µM),relative viability (Masitinib + Pictilisib; first compound 0.03162 µM),relative viability (Masitinib + Pictilisib; first compound 0.1 µM),relative viability (Masitinib + Pictilisib; first compound 0.3162 µM),relative viability (Masitinib + Pictilisib; first compound 1 µM),relative viability (Masitinib + Vorinostat; first compound 0.01 µM),relative viability (Masitinib + Vorinostat; first compound 0.03162 µM),relative viability (Masitinib + Vorinostat; first compound 0.1 µM),relative viability (Masitinib + Vorinostat; first compound 0.3162 µM),relative viability (Masitinib + Vorinostat; first compound 1 µM),relative viability ([2]; first compound 0.08 µM),relative viability ([2]; first compound 0.253 µM),relative viability ([2]; first compound 0.8 µM),relative viability ([2]; first compound 2.53 µM),relative viability ([2]; first compound 8 µM)
LXF-289,1.02,0.994,1.04,1.05,0.927,0.729,0.836,0.792,0.846,0.761,0.646,0.818,0.65,0.854,0.743,0.851,0.924,0.708,0.871,0.792
NCI-H23,0.226,0.228,0.22,0.221,0.235,0.434,0.493,0.525,0.495,0.457,0.564,0.462,0.547,0.454,0.501,0.629,0.447,0.66,0.582,0.778
NCI-H322M,0.687,0.76,0.725,0.613,0.575,0.545,0.463,0.481,0.503,0.483,0.831,0.821,0.881,0.91,0.882,0.564,0.576,0.608,0.615,0.624
NCI-H358,0.547,0.519,0.521,0.5,0.521,0.328,0.319,0.34,0.394,0.296,0.72,0.658,0.773,0.641,0.616,0.153,0.19,0.175,0.176,0.166
NCI-H441,0.564,0.52,0.571,0.688,0.521,0.654,0.449,0.601,0.482,0.446,0.856,0.75,1.12,1.01,0.894,0.265,0.265,0.246,0.255,0.255
NCI-H460,0.368,0.344,0.355,0.278,0.263,0.587,0.26,0.415,0.254,0.321,0.766,0.418,0.841,0.647,0.758,0.0627,0.0625,0.0614,0.0648,0.0687
NCI-H520,0.384,0.325,0.391,0.314,0.288,0.336,–,0.366,0.313,0.271,0.796,0.703,0.755,0.932,0.687,0.706,0.678,0.677,0.865,0.644
NCI-H596,0.674,0.546,0.673,0.6,0.613,0.214,0.345,0.438,0.385,0.35,0.702,0.546,0.545,0.533,0.588,0.494,0.472,0.446,0.454,0.463
NCI-H647,0.477,0.528,0.55,0.523,0.305,0.424,0.356,0.44,0.333,0.321,0.503,0.533,0.592,0.693,0.619,0.181,0.154,0.147,0.167,0.151
NCI-H650,0.338,0.348,0.392,0.368,0.367,0.921,0.909,1.09,0.864,0.929,0.458,0.527,0.415,0.484,0.404,0.953,0.88,1.07,0.863,1.06
NCI-H661,0.736,0.803,0.769,0.75,0.642,0.439,0.356,0.511,0.371,0.346,0.785,0.801,0.774,0.805,0.821,0.876,0.959,0.889,0.907,0.871
NCI-H838,0.567,0.545,0.714,0.685,0.521,0.477,0.387,0.512,0.396,0.432,0.7,0.664,0.773,0.639,0.703,0.26,0.228,0.263,0.257,0.241
NCI-H1355,0.579,0.531,0.444,0.385,0.407,0.454,0.264,0.418,0.331,0.441,0.631,0.518,0.633,0.464,0.577,0.866,0.778,0.791,0.75,0.692
NCI-H1395,0.439,–,0.478,0.46,0.43,0.695,0.577,0.645,0.565,0.58,0.765,0.613,0.787,0.774,0.637,0.757,–,0.921,0.596,0.728
NCI-H1437,0.628,0.585,0.525,0.478,0.371,0.432,0.421,0.403,0.421,0.382,0.798,0.799,0.932,0.789,0.75,0.349,0.326,0.27,0.31,0.283
NCI-H1650,0.539,0.901,0.525,0.488,0.432,0.53,0.501,0.583,0.548,0.535,0.492,0.402,0.549,0.437,0.512,0.341,0.358,0.399,0.346,0.323

Cell Line,relative viability ([1]; first compound 0.08 µM),relative viability ([1]; first compound 0.253 µM),relative viability ([1]; first compound 0.8 µM),relative viability ([1]; first compound 2.53 µM),relative viability ([1]; first compound 8 µM),relative viability (Masitinib + Pictilisib; first compound 0.01 µM),relative viability (Masitinib + Pictilisib; first compound 0.03162 µM),relative viability (Masitinib + Pictilisib; first compound 0.1 µM),relative viability (Masitinib + Pictilisib; first compound 0.3162 µM),relative viability (Masitinib + Pictilisib; first compound 1 µM),relative viability (Masitinib + Vorinostat; first compound 0.01 µM),relative viability (Masitinib + Vorinostat; first compound 0.03162 µM),relative viability (Masitinib + Vorinostat; first compound 0.1 µM),relative viability (Masitinib + Vorinostat; first compound 0.3162 µM),relative viability (Masitinib + Vorinostat; first compound 1 µM),relative viability ([2]; first compound 0.08 µM),relative viability ([2]; first compound 0.253 µM),relative viability ([2]; first compound 0.8 µM),relative viability ([2]; first compound 2.53 µM),relative viability ([2]; first compound 8 µM)
NCI-H1651,0.185,0.179,0.166,0.177,0.186,0.529,0.585,0.543,0.622,0.505,0.577,0.543,0.56,0.529,0.55,0.55,0.604,0.648,0.498,0.598
NCI-H1666,0.677,0.771,0.737,0.766,0.824,0.393,0.382,0.474,0.246,0.346,1.08,0.875,1.09,1.02,1.09,0.787,0.749,0.603,0.738,0.674
NCI-H1734,0.552,0.584,0.57,0.63,0.539,0.441,0.459,0.532,0.412,0.395,0.751,0.756,0.773,0.779,0.794,0.374,0.421,0.409,0.44,0.371
NCI-H1755,0.796,0.829,0.769,0.598,0.533,–,0.387,0.402,0.482,0.423,0.617,0.732,0.647,0.758,0.693,0.35,0.445,0.393,0.401,0.397
NCI-H1793,0.889,0.647,0.799,0.68,0.81,0.455,0.318,0.427,0.381,0.338,0.828,0.66,0.712,0.379,0.687,0.603,0.779,0.808,0.604,0.957
NCI-H1915,0.271,0.263,0.25,0.243,0.23,–,0.97,0.664,0.853,0.908,–,0.488,–,0.505,0.541,0.496,0.493,0.508,0.508,0.401
NCI-H1944,0.377,0.379,0.377,0.327,0.377,–,0.334,0.352,0.317,0.345,–,0.528,–,0.547,0.5,0.543,0.6,0.636,0.654,0.476
NCI-H1975,0.747,0.442,0.458,0.395,0.235,0.288,0.305,0.331,0.224,0.289,0.693,0.736,0.724,0.716,0.711,0.277,0.25,0.257,0.24,0.239
NCI-H1993,0.945,1.01,0.923,1.11,0.898,0.859,–,1.05,0.778,0.825,0.727,0.527,0.943,0.723,0.762,0.507,0.517,0.618,0.547,0.578
NCI-H2009,0.629,0.644,0.717,0.677,0.63,0.641,0.87,0.756,0.923,0.793,0.664,0.772,0.69,0.654,0.602,0.938,1.05,1,1,0.914
NCI-H2023,0.42,0.543,0.38,0.388,0.286,0.225,0.248,0.286,0.191,0.243,0.493,0.583,0.66,0.611,0.721,0.211,0.18,0.274,0.195,0.187
NCI-H2085,0.844,0.784,0.757,0.769,0.587,0.522,0.455,0.469,0.396,0.595,0.7,0.829,0.67,0.701,0.822,0.774,0.943,0.84,0.806,0.711
NCI-H2087,0.596,0.503,0.607,0.448,0.462,0.894,0.859,0.837,0.93,0.805,0.532,0.828,0.672,0.72,0.746,0.637,0.623,0.591,0.63,0.711
NCI-H2126,0.894,0.898,0.869,0.88,0.887,0.514,0.459,0.459,0.414,0.467,0.736,0.764,0.8,0.798,0.79,0.596,0.599,0.657,0.599,0.719
NCI-H2170,0.589,0.631,0.473,0.531,0.425,0.32,0.28,0.299,0.271,0.301,0.781,0.708,0.908,0.869,0.823,0.229,0.286,0.27,0.26,0.264
NCI-H2228,0.396,0.324,0.525,0.559,0.415,0.381,0.36,0.398,0.236,0.392,0.604,0.59,0.693,0.593,0.665,0.38,0.346,0.323,0.343,0.208
